TGI data for 9 compounds are collected here from PubChem BioAssay (NCI).

The structures appear in SMILES notation.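 Assay format: 96-well plates, 48-hour exposure. TGI is the concentration that stops growth completely.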 A value given as a limit tells only on which side of the number the result lay.

Test systems include A549 NSCLC; EKVX NSCLC; SN12C renal; LOX IMVI melanoma; SF-539 CNS; UO-31 renal; SF-295 CNS; SK-MEL-2 melanoma; CAKI-1 renal; KM12 colon; NCI-H522 lung; NCI-H23 lung; HCC-2998 colon; MALME-3M melanoma; HS 578T breast; MDA-MB-435; MDA-MB-231 breast; DU-145 prostate.
What all share (assay): NCI-60 cell line screen, 48 h

With `O=C(Nc1ccc([N+](=O)[O-])cc1)C(=O)C(C(=O)c1ccccc1F)C1OC(=O)c2ccccc21` (centres undefined), the TGI with A549 NSCLC is greater than 100 µM; in the test on EKVX NSCLC, greater than 100 µM; in the test with SN12C renal, greater than 100 µM; in the test on LOX IMVI melanoma it was 60.7 µM; in the test with SF-539 CNS, 56 µM; in the test with UO-31 renal it was greater than 100 µM. Also, the TGI is greater than 100 µM in the test with SF-295 CNS; 71.6 µM with SK-MEL-2 melanoma; greater than 100 µM in the test with CAKI-1 renal; greater than 100 µM with KM12 colon; 41.6 µM in the test with NCI-H522 lung; greater than 100 µM with NCI-H23 lung. The compound further yielded a TGI in the test with HCC-2998 colon of 41.4 µM.
Turning to `Cn1c(=O)nc2n(-c3ccc(Cl)cc3Cl)c3ccccc3nc-2c1=O`, the TGI came to 13.3 µM with A549 NSCLC; 16.9 µM in the test on EKVX NSCLC; 19.3 µM in the test with SF-539 CNS; 26 µM in the test on UO-31 renal; 10.6 µM with SF-295 CNS; 17.4 µM in the test with SK-MEL-2 melanoma. The TGI in the test on CAKI-1 renal is 13.2 µM; in the test on MALME-3M melanoma it was 3.26 µM; in the test on KM12 colon, 15.8 µM; in the test with NCI-H23 lung, 22 µM; in the test with HCC-2998 colon it was 14.5 µM.
Consider `CC(C)N1CSC(=S)N(Cc2ccccc2)C1`, for which the TGI in the test with A549 NSCLC is greater than 10 µM; with EKVX NSCLC, greater than 10 µM; in the test on SN12C renal, greater than 10 µM; in the test with LOX IMVI melanoma, greater than 10 µM; in the test on SF-539 CNS, 3.35 µM; in the test with SF-295 CNS, greater than 10 µM. Besides, the TGI with HS 578T breast, with MDA-MB-435, in the test with KM12 colon, in the test with NCI-H23 lung and with HCC-2998 colon was greater than 10 µM throughout.
As for `CC(=O)O[C@]12CCC[C@H]1C1(O)C(O)CCC[C@H]12` (some centres undefined), the TGI in the test on A549 NSCLC, in the test on EKVX NSCLC, in the test with SN12C renal, in the test on LOX IMVI melanoma, in the test with UO-31 renal and in the test on SF-295 CNS was greater than 100 µM throughout. The TGI with SK-MEL-2 melanoma, with MALME-3M melanoma, in the test on KM12 colon, in the test on NCI-H522 lung and in the test with NCI-H23 lung was greater than 100 µM each time.
For `CC1=CCS(=O)(=O)C1C(O)C1=C(C)CCCC1(C)C` (centres undefined), the TGI with A549 NSCLC, in the test on EKVX NSCLC, in the test with SN12C renal, in the test on LOX IMVI melanoma, in the test with SF-539 CNS and in the test on UO-31 renal was greater than 100 µM throughout. Besides, the TGI in the test with SF-295 CNS, in the test on SK-MEL-2 melanoma, in the test with CAKI-1 renal, in the test on MALME-3M melanoma, with MDA-MB-435 and in the test with KM12 colon was greater than 100 µM each time. Further, the TGI in the test on NCI-H522 lung, in the test with MDA-MB-231 breast, with DU-145 prostate, in the test with NCI-H23 lung and in the test with HCC-2998 colon was greater than 100 µM each time.
`CC(Oc1ccc(OCC2CCCCC2)cc1)C(=O)N(CCO)CCO` (centres undefined): the TGI in the test with A549 NSCLC was greater than 100 µM; in the test with SN12C renal it was greater than 100 µM; in the test with LOX IMVI melanoma, greater than 100 µM; in the test with SF-539 CNS, 39.8 µM; in the test on UO-31 renal, greater than 100 µM; with SF-295 CNS, greater than 100 µM. Moreover, the TGI in the test on SK-MEL-2 melanoma, in the test with MALME-3M melanoma, in the test on KM12 colon, in the test with NCI-H522 lung, in the test with NCI-H23 lung and in the test with HCC-2998 colon was greater than 100 µM each time.
With `Cc1cccc(Nc2cn(CCOc3ccccc3)c(=O)n(CCOc3ccccc3)c2=O)c1`, the TGI was greater than 100 µM with A549 NSCLC; 96.9 µM in the test on EKVX NSCLC; greater than 100 µM with SN12C renal; greater than 100 µM in the test on LOX IMVI melanoma; greater than 100 µM with UO-31 renal; greater than 100 µM with SF-295 CNS. Further, the TGI in the test with HS 578T breast, with CAKI-1 renal, with MDA-MB-435, in the test with KM12 colon, in the test on DU-145 prostate and in the test with NCI-H23 lung was greater than 100 µM throughout. Further, the TGI in the test with HCC-2998 colon was greater than 100 µM.
`C=C(Br)CN(CC(=C)Br)C(C)=O`: the TGI with A549 NSCLC, in the test on EKVX NSCLC, in the test with SN12C renal, in the test on LOX IMVI melanoma, in the test with SF-539 CNS and in the test with UO-31 renal was greater than 100 µM each time. The TGI in the test with SF-295 CNS, with HS 578T breast, in the test with SK-MEL-2 melanoma, with CAKI-1 renal, in the test on MALME-3M melanoma and in the test on MDA-MB-435 was greater than 100 µM each time. Also, the TGI with KM12 colon, in the test with NCI-H522 lung, with MDA-MB-231 breast, with DU-145 prostate, in the test with NCI-H23 lung and in the test on HCC-2998 colon was greater than 100 µM throughout.
Turning to `CCOC(=O)N1CCN(C(=O)Nc2cccc3ccccc23)CC1`, the TGI in the test with A549 NSCLC, in the test on EKVX NSCLC, in the test on SN12C renal, with LOX IMVI melanoma, in the test on SF-539 CNS and in the test with UO-31 renal was greater than 10 µM throughout. Moreover, the TGI in the test on SF-295 CNS, with HS 578T breast, with SK-MEL-2 melanoma, in the test with CAKI-1 renal, in the test on MALME-3M melanoma and in the test on MDA-MB-435 was greater than 10 µM each time. Besides, the TGI in the test on KM12 colon, with NCI-H522 lung, with MDA-MB-231 breast, with DU-145 prostate, with NCI-H23 lung and in the test on HCC-2998 colon was greater than 10 µM in each case.
